Literature values as cited in US12404348B2, “Bifunctional chimeric molecules for labeling of kinases with target binding moieties and methods of use thereof” (The Brigham and Women's Hospital, Inc., priority 2021, dated 2025).

What was measured:
[1] = tested on: NF-κB Pathway; conditions: U(37 cells)
[2] = target: T1, Recombinant PKCζ (Homo sapiens, UniProt Q05513)
T1 sequence (Q05513 1-592): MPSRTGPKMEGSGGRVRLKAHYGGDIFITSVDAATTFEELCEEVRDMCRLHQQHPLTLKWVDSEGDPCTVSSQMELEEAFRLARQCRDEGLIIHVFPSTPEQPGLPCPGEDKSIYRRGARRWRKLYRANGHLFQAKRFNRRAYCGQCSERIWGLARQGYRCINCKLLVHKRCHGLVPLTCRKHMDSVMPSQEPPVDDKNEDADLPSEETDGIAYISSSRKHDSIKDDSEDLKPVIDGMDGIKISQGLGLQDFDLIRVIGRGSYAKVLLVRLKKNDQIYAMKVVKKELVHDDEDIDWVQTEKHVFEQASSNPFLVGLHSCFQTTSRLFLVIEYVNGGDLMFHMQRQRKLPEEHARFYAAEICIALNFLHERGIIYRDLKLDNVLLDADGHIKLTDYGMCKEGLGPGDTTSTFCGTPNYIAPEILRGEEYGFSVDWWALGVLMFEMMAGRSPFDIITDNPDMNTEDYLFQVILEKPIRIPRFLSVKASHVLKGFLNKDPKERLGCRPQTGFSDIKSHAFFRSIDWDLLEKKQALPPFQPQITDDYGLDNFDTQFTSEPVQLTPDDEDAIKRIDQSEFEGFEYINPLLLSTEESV

[3] = target: T2, PKCl (Homo sapiens, UniProt P41743)
T2 sequence (P41743 1-596): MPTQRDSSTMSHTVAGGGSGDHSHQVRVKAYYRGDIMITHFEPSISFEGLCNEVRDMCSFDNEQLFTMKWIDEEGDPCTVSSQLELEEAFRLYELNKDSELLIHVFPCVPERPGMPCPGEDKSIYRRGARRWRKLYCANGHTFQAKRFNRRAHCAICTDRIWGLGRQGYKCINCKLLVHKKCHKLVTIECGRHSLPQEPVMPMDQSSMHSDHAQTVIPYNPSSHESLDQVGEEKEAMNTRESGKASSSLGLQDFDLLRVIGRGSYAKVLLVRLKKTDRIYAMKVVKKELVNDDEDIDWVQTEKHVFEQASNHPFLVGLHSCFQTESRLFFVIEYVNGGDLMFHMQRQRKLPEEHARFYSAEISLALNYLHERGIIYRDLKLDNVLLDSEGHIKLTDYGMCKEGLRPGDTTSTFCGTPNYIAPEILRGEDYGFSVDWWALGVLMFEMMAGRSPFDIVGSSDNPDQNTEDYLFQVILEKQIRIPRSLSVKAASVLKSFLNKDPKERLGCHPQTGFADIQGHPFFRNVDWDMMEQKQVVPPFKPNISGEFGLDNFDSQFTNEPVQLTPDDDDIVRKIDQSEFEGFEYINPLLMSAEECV

[4] = target: T3, PDK1 (Homo sapiens, UniProt O15530)
T3 sequence (O15530 1-556): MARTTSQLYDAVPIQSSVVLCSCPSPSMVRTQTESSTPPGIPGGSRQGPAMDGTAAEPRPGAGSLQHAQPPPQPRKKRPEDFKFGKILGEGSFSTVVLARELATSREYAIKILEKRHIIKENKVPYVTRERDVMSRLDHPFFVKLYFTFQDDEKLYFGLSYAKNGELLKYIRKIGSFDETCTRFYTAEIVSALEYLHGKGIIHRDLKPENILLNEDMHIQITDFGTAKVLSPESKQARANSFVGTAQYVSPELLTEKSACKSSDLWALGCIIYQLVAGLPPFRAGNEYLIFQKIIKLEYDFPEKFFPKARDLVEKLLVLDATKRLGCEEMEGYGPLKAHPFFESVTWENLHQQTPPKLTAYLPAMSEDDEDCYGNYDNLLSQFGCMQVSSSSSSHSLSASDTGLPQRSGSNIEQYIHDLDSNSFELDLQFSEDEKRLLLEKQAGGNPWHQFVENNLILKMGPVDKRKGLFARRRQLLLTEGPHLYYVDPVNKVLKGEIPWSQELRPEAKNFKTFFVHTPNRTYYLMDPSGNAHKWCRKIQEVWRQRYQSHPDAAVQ

[5] = target: T4, AKT1 (Homo sapiens, UniProt P31749)
T4 sequence (P31749 whole entry): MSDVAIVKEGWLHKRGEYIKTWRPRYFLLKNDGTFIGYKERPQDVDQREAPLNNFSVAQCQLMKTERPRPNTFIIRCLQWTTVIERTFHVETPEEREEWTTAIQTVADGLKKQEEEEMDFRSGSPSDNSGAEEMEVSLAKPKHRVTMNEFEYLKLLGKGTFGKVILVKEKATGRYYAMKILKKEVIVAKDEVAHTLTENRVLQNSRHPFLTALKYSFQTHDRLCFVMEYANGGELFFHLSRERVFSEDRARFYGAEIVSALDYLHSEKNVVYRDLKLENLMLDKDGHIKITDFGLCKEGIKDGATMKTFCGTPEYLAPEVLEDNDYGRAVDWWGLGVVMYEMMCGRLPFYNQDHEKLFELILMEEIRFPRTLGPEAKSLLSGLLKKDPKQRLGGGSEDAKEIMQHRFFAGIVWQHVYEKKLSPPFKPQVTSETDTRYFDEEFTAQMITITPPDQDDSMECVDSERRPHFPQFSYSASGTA

[6] = target: T4, AKT1; remark: listed apart in the source

Row | SMILES | NF-κB reporter gene assay % inhibin at 5 μM [1] | cell-free assay % inhibin at 62.5 μM [2] | further results
1 | CC(C)(C)C1=NN(c2ccc(F)cc2)C(c2ccc(O)cc2)C1 (centres unmarked) [1b] | 63.8% |  | 
2 | CC(C)(C)C1=NN(c2ccc(Br)cc2)C(c2ccc(O)cc2)C1 (centres unmarked) [1c] | 58.4% |  | 
3 | Cc1ccc(N2N=C(C(C)(C)C)CC2c2ccc(O)cc2)cc1 (centres unmarked) [1e] | 62.9% |  | 
4 | CC(C)c1ccc(N2N=C(C(C)(C)C)CC2c2ccc(O)cc2)cc1 (centres unmarked) [1f] |  | 54.9% | 
5 | CC(C)(C)C1=NN(c2ccc(C(=O)O)cc2)C(c2ccc(O)cc2)C1 (centres unmarked) [1g] | 40.7% | 47.9% | 
6 | CC(C)(C)C1=NN(c2cccc(Cl)c2)C(c2ccc(O)cc2)C1 (centres unmarked) [1h] | 64.6% |  | PKCl % inhibn at 20 μM [3]: 43.5%
7 | CC(C)(C)C1=NN(c2cccc(F)c2)C(c2ccc(O)cc2)C1 (centres unmarked) [1i] | 73.5% |  | PKCl % inhibn at 20 μM [3]: 19.3%
8 | CC(C)(C)C1=NN(c2cccc(C(F)(F)F)c2)C(c2ccc(O)cc2)C1 (centres unmarked) [1j] | 89.7% |  | IC50 ([1]; read-out: NF-κB reporter gene assay IC50 ± SD): 2.7 ± 0.32 µM; PKCl % inhibn at 20 μM [3]: 17.0%
9 | Cc1cccc(N2N=C(C(C)(C)C)CC2c2ccc(O)cc2)c1 (centres unmarked) [1k] | 73.7% |  | PKCl % inhibn at 20 μM [3]: 13.9%
10 | CC(C)(C)C1=NN(c2ccccc2Cl)C(c2ccc(O)cc2)C1 (centres unmarked) [1l] | 23.5% | 57.1% | 
11 | CC(C)(C)C1=NN(c2ccccc2F)C(c2ccc(O)cc2)C1 (centres unmarked) [1m] | 48.7% | 57.6% | 
12 | CC(C)(C)C1=NN(c2ccc(Cl)cc2Cl)C(c2ccc(O)cc2)C1 (centres unmarked) [1n] | 50.2% | 71.0% | 
13 | CC(C)(C)C1=NN(c2ccc(F)cc2F)C(c2ccc(O)cc2)C1 (centres unmarked) [1o] | 51.8% | 68.0% | 
14 | Cc1ccc(N2N=C(C(C)(C)C)CC2c2ccc(O)cc2)c(C)c1 (centres unmarked) [1p] | 41.5% | 59.9% | 
15 | CC(C)(C)C1=NN(c2ccc(F)c(F)c2)C(c2ccc(O)cc2)C1 (centres unmarked) [1s] |  |  | PKCl % inhibn at 20 μM [3]: 23.7%
16 | Oc1ccc(C2CC(c3ccccc3O)=NN2c2ccc(Cl)cc2)cc1O (centres unmarked) [4g] |  |  | PKCl % inhibn at 20 μM [3]: 44.1%
17 | O=C(O)/C=C(/CCc1cccc(Cl)c1)c1ccccc1 [Compound 3Z] |  |  | Amax [4]: 2.2 fold
18 | COc1ccccc1Cn1c(-c2cccnc2N)nc2cccnc21 [Compound 3c] |  |  | Akt1 ΔTm [5]: no shift
19 | COc1ccccc1Cn1c(-c2cccnc2N)nc2cc(Br)cnc21 [Compound 3d] |  |  | Akt1 ΔTm [5]: no shift; IC50 [6]: > 300 µM
20 | CC(C)(C)c1ccc(-n2c(-c3ccncc3)nc3cccnc32)cc1 [Compound 3f] |  |  | Akt1 ΔTm [5]: no shift; IC50 [6]: 185 µM
21 | CC(C)(C)c1ccc(-n2c(-c3cccnc3N)nc3cc(Br)cnc32)cc1 [Compound 3g] |  |  | Akt1 ΔTm [5]: 0.9 °C; IC50 [6]: > 300 µM
